Measured values as given in PubChem BioAssay (NCI).
Several values for one entry are separate records, joined by “and”; a condition that tells them apart may be missing. Equal values may be shown once.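 Following 48 hours of exposure in 96-well plates, responses at five concentrations were used to interpolate endpoints linearly. GI50 marks 50% less growth. At the TGI there is no net growth.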

What was measured:
Experiment in all cases: NCI-60 cell line screen, 48 h
COLO 205 colon = test system: COLO 205 colon
786-0 renal = test system: 786-0 renal
NCI/ADR-RES ovarian = test system: NCI/ADR-RES ovarian
DU-145 prostate = test system: DU-145 prostate
NCI-H460 lung = test system: NCI-H460 lung
CCRF-CEM leukemia = test system: CCRF-CEM leukemia
OVCAR-3 ovarian = test system: OVCAR-3 ovarian
HL-60(TB) leukemia = test system: HL-60(TB) leukemia
HCT-15 colon = test system: HCT-15 colon
SF-539 CNS = test system: SF-539 CNS

## CCOC(=O)c1c2c(n(C)c1-c1ccccc1)C(=O)C(C)=CC2=O
COLO 205 colon
  TGI: 4.5 µM
786-0 renal
  TGI: 32.1 µM
NCI/ADR-RES ovarian
  TGI: 23.3 µM
DU-145 prostate
  TGI: 35.2 µM
NCI-H460 lung
  TGI: 47.8 µM
CCRF-CEM leukemia
  TGI: 7.98 µM
OVCAR-3 ovarian
  TGI: 8.17 µM
HL-60(TB) leukemia
  TGI: 9.79 µM
HCT-15 colon
  TGI: 17.7 µM
SF-539 CNS
  TGI: 14.6 µM

## CC1(C)OC[C@@H](/C=C\CCO[Si](c2ccccc2)(c2ccccc2)C(C)(C)C)N1C(=O)c1ccccc1
COLO 205 colon
  TGI: 21.9 µM
786-0 renal
  TGI: 28 µM
NCI/ADR-RES ovarian
  TGI: > 100 µM
DU-145 prostate
  TGI: 95.9 µM
NCI-H460 lung
  TGI: 17.3 µM
CCRF-CEM leukemia
  TGI: 59.7 µM
OVCAR-3 ovarian
  TGI: 30.5 µM
HL-60(TB) leukemia
  TGI: 14.6 µM
HCT-15 colon
  TGI: > 100 µM
SF-539 CNS
  TGI: 45.4 µM

## CC(=O)N[C@@H](Cc1ccc(O)cn1)C(=O)NCc1ccc2c(c1)OCO2
COLO 205 colon
  TGI: > 100 µM
786-0 renal
  TGI: > 100 µM
NCI/ADR-RES ovarian
  TGI: > 100 µM
DU-145 prostate
  TGI: > 100 µM
NCI-H460 lung
  TGI: > 100 µM
CCRF-CEM leukemia
  TGI: > 100 µM
OVCAR-3 ovarian
  TGI: > 100 µM
HL-60(TB) leukemia
  TGI: > 100 µM
HCT-15 colon
  TGI: > 100 µM
SF-539 CNS
  TGI: > 100 µM

## O=C(Nc1cccc2nsnc12)c1cc2c(cc1Cl)Sc1nccn1S2(=O)=O
COLO 205 colon
  TGI: 33.3 µM
786-0 renal
  TGI: 32 µM
NCI/ADR-RES ovarian
  TGI: 42.6 µM
DU-145 prostate
  GI50: 1.74 µM
  TGI: 3.17 µM
NCI-H460 lung
  TGI: 5.98 µM
CCRF-CEM leukemia
  TGI: > 36.6 µM
OVCAR-3 ovarian
  TGI: 3.47 µM
HL-60(TB) leukemia
  TGI: 3.72 µM
HCT-15 colon
  TGI: 25.6 µM
SF-539 CNS
  TGI: 10 µM

## COc1ccc(/C=N/Nc2[nH]c(=S)nc3[nH]ncc23)cc1
COLO 205 colon
  TGI: 47.9 µM
786-0 renal
  TGI: > 100 µM
NCI/ADR-RES ovarian
  TGI: > 100 µM
DU-145 prostate
  TGI: > 100 µM
NCI-H460 lung
  TGI: > 100 µM
CCRF-CEM leukemia
  TGI: > 100 µM
OVCAR-3 ovarian
  TGI: > 100 µM
HL-60(TB) leukemia
  TGI: > 100 µM
HCT-15 colon
  TGI: > 100 µM
SF-539 CNS
  TGI: > 100 µM

## Cc1cs/c(=N\C(P(=O)(O)O)P(=O)(O)O)n1C
COLO 205 colon
  TGI: > 100 µM
786-0 renal
  TGI: > 100 µM
NCI/ADR-RES ovarian
  TGI: > 100 µM
DU-145 prostate
  TGI: > 100 µM
NCI-H460 lung
  TGI: > 100 µM
CCRF-CEM leukemia
  TGI: > 100 µM
OVCAR-3 ovarian
  TGI: > 100 µM
HL-60(TB) leukemia
  TGI: > 100 µM
HCT-15 colon
  TGI: > 100 µM
SF-539 CNS
  TGI: > 100 µM

## O=C1c2ccccc2S(=O)(=O)c2ccccc21
COLO 205 colon
  TGI: > 100 µM
786-0 renal
  TGI: > 100 µM
NCI/ADR-RES ovarian
  TGI: > 100 µM
DU-145 prostate
  TGI: > 100 µM
NCI-H460 lung
  TGI: > 100 µM
CCRF-CEM leukemia
  TGI: > 100 µM
OVCAR-3 ovarian
  TGI: > 100 µM
HL-60(TB) leukemia
  TGI: > 100 µM
HCT-15 colon
  TGI: > 100 µM
SF-539 CNS
  TGI: > 100 µM

## CCOC(=O)/C=C1\Nc2ccccc2C12CCc1c([nH]c3ccccc13)C2C(=O)OCC (stereo not drawn)
COLO 205 colon
  TGI: 30.2 µM
786-0 renal
  TGI: > 100 µM
NCI/ADR-RES ovarian
  TGI: > 100 µM
DU-145 prostate
  TGI: > 100 µM
NCI-H460 lung
  TGI: > 100 µM
CCRF-CEM leukemia
  TGI: > 100 µM
OVCAR-3 ovarian
  TGI: > 100 µM
HL-60(TB) leukemia
  TGI: > 100 µM
HCT-15 colon
  TGI: > 100 µM
SF-539 CNS
  TGI: > 100 µM

## COc1cc(C2C(Cl)C(=O)N2c2ccc(Br)cc2)cc(I)c1O (stereo not drawn)
COLO 205 colon
  TGI: > 100 µM
786-0 renal
  TGI: > 100 µM
NCI/ADR-RES ovarian
  TGI: > 100 µM
DU-145 prostate
  TGI: > 100 µM
NCI-H460 lung
  TGI: > 100 µM
CCRF-CEM leukemia
  TGI: > 100 µM
OVCAR-3 ovarian
  TGI: > 100 µM
HL-60(TB) leukemia
  TGI: > 100 µM
HCT-15 colon
  TGI: > 100 µM
SF-539 CNS
  TGI: > 100 µM

## O=C(c1ccccc1F)c1c(NCc2ccccc2)c(=O)c1=O
COLO 205 colon
  TGI: > 100 µM
786-0 renal
  TGI: > 100 µM
NCI/ADR-RES ovarian
  TGI: > 100 µM
DU-145 prostate
  TGI: > 100 µM
NCI-H460 lung
  TGI: > 100 µM
CCRF-CEM leukemia
  TGI: > 100 µM
OVCAR-3 ovarian
  TGI: > 100 µM
HL-60(TB) leukemia
  TGI: > 100 µM
HCT-15 colon
  TGI: > 100 µM
SF-539 CNS
  TGI: > 100 µM

## CCCCCCCCCCCCC(=O)NCC(=O)NC(Cc1ccccc1)C(=O)Oc1ccc([N+](=O)[O-])cc1 (stereo not drawn)
COLO 205 colon
  TGI: 31.9 µM
786-0 renal
  TGI: > 100 µM
NCI/ADR-RES ovarian
  TGI: > 100 µM
DU-145 prostate
  TGI: > 100 µM
NCI-H460 lung
  TGI: > 100 µM
CCRF-CEM leukemia
  TGI: 68.7 µM
OVCAR-3 ovarian
  TGI: > 100 µM
HL-60(TB) leukemia
  TGI: > 100 µM
HCT-15 colon
  TGI: > 100 µM
SF-539 CNS
  TGI: > 100 µM

## COc1ccc(C2CC(c3c(C)nn(-c4ccccc4)c3-c3ccc(C)cc3O)=NN2c2ccccc2)cc1 (stereo not drawn)
COLO 205 colon
  TGI: > 100 µM
786-0 renal
  TGI: > 100 µM
NCI/ADR-RES ovarian
  TGI: > 100 µM
DU-145 prostate
  TGI: > 100 µM
NCI-H460 lung
  TGI: > 41.7 µM
CCRF-CEM leukemia
  TGI: > 100 µM
OVCAR-3 ovarian
  TGI: > 100 µM
HL-60(TB) leukemia
  TGI: > 100 µM
HCT-15 colon
  TGI: > 100 µM
SF-539 CNS
  TGI: > 100 µM

## COc1ccccc1C(=O)c1c(N2CCCCC2)c(=O)c1=O
COLO 205 colon
  TGI: > 100 µM
786-0 renal
  TGI: > 100 µM
NCI/ADR-RES ovarian
  TGI: > 100 µM
DU-145 prostate
  TGI: > 100 µM
NCI-H460 lung
  TGI: > 100 µM
CCRF-CEM leukemia
  TGI: > 100 µM
OVCAR-3 ovarian
  TGI: > 100 µM
HL-60(TB) leukemia
  TGI: > 100 µM
HCT-15 colon
  TGI: > 100 µM
SF-539 CNS
  TGI: > 100 µM

## [N-]=[N+]=NC1(c2ccccc2)C(=O)Nc2ccccc2C1=O (stereo not drawn)
COLO 205 colon
  TGI: > 100 µM
786-0 renal
  TGI: > 100 µM
NCI/ADR-RES ovarian
  TGI: > 100 µM
DU-145 prostate
  TGI: > 100 µM
NCI-H460 lung
  TGI: > 100 µM
CCRF-CEM leukemia
  TGI: > 100 µM
OVCAR-3 ovarian
  TGI: > 100 µM
HL-60(TB) leukemia
  TGI: > 100 µM
HCT-15 colon
  TGI: > 100 µM
SF-539 CNS
  TGI: > 100 µM

## CCCCCCCCCCCCCCCCP(=O)(O)OP(=O)(O)OCC1OC(n2ccc(N)nc2=O)C(O)C1O (stereo not drawn)
COLO 205 colon
  GI50: 54.7 µM and 19 µM
  TGI: > 100 µM
786-0 renal
  TGI: > 100 µM and 27.6 µM
NCI/ADR-RES ovarian
  TGI: > 100 µM
DU-145 prostate
  TGI: > 100 µM
NCI-H460 lung
  TGI: > 100 µM
CCRF-CEM leukemia
  TGI: > 100 µM and 21.4 µM
OVCAR-3 ovarian
  TGI: > 100 µM
HL-60(TB) leukemia
  TGI: > 100 µM
HCT-15 colon
  GI50: 97.5 µM and 19.3 µM
  TGI: > 100 µM
SF-539 CNS
  TGI: 36.3 µM and 88.6 µM

## CC(C)=CC(=O)O[C@@H]1CC(C)(C)CC2C3=CCC4[C@]56CC[C@](O)(OC5)C(C)(C)C6CC[C@@]4(C)C3(C)CC[C@]21C(=O)O (stereo partly drawn)
COLO 205 colon
  TGI: 50.4 µM
786-0 renal
  TGI: > 100 µM
NCI/ADR-RES ovarian
  TGI: > 100 µM
DU-145 prostate
  TGI: > 100 µM
NCI-H460 lung
  TGI: > 100 µM
CCRF-CEM leukemia
  TGI: > 100 µM
OVCAR-3 ovarian
  TGI: > 100 µM
HL-60(TB) leukemia
  TGI: > 100 µM
HCT-15 colon
  TGI: > 100 µM
SF-539 CNS
  TGI: > 100 µM

## c1ccc2c(c1)CC1c3[nH]c4ccccc4c3CCN21 (stereo not drawn)
COLO 205 colon
  TGI: > 10 µM
786-0 renal
  TGI: > 10 µM
NCI/ADR-RES ovarian
  TGI: > 10 µM
DU-145 prostate
  TGI: > 10 µM
NCI-H460 lung
  TGI: > 10 µM
CCRF-CEM leukemia
  TGI: > 10 µM
OVCAR-3 ovarian
  TGI: > 10 µM
HL-60(TB) leukemia
  TGI: > 10 µM
HCT-15 colon
  TGI: > 10 µM
SF-539 CNS
  TGI: > 10 µM
